This note sets out measurements from paper PMC9760430, “A stapled chromogranin A-derived peptide homes in on tumors that express αvβ6 or αvβ8 integrins” (International Journal of Biological Sciences, 2023).

One assay deals with T1, murine αvβ8 (Mus musculus, UniProt P43406+Q0VBD0).
T1 construct: purchased Bio-Techne
T1 sequence (P43406 31-988 limits assumed): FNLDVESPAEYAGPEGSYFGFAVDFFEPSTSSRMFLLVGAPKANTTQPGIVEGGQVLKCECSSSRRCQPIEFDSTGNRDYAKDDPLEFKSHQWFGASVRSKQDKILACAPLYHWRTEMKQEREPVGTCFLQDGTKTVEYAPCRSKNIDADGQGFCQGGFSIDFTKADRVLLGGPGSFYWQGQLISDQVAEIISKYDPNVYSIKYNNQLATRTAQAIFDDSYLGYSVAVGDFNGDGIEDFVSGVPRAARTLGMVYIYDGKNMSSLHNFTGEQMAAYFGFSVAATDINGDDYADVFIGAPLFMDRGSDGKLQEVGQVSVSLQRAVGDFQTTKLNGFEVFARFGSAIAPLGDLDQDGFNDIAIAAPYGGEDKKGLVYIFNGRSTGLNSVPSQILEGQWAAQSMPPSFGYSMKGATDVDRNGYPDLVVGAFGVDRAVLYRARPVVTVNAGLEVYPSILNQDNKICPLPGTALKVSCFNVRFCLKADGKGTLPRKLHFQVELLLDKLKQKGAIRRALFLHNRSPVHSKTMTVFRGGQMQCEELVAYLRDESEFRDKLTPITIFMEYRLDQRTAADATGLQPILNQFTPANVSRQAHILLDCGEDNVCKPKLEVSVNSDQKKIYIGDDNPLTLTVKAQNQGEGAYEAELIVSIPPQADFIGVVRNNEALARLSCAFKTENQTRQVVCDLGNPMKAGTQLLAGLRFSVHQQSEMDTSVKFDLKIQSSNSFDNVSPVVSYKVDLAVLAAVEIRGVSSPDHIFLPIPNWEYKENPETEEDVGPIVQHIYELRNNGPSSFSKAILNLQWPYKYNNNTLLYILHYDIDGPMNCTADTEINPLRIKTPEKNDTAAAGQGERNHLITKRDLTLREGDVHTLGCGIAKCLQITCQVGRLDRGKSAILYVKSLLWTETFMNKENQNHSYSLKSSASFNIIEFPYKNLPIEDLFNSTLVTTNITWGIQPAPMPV
T1 sequence (Q0VBD0 43-682 limits assumed): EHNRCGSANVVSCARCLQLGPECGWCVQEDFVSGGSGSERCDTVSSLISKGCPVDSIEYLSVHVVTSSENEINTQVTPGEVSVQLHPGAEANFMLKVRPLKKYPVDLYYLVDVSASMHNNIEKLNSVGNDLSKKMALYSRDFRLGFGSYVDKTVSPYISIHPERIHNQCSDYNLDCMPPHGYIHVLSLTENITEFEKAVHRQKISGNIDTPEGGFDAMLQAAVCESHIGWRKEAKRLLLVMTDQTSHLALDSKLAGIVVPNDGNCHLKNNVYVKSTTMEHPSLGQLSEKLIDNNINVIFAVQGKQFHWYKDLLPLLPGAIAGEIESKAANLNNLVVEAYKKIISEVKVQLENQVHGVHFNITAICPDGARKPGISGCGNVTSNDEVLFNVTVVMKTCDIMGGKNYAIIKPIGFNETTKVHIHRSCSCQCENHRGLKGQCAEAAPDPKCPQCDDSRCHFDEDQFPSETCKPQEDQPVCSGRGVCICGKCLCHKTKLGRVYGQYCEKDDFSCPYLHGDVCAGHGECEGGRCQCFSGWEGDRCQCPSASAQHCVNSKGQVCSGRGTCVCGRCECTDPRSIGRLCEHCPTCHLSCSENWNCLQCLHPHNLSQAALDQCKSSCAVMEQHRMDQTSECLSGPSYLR
As to the kind of experiment: direct integrin binding assay of peptide-IRDye conjugates, murine αvβ8-coated plates. As to conditions: plates coated with recombinant murine αvβ8; conjugate 0.01-100 nM, 1 h; bound NIR fluorescence; mean ± SE, n = 3 experiments. The protocol: The affinity of peptide-IRDye conjugates for αvβ6 and αvβ8 integrins was determined by a direct binding assay using microtiter plates coated with αvβ6 or αvβ8 (Bio-Techne). After 1 h of incubation, the plates were washed; bound fluorescence was quantified by scanning the plates with an Odyssey CLx near-infrared fluorescence imaging system (LI-COR).
A control conjugate with a cysteine in place of the peptide was also prepared in parallel. […]
The simplified molecular-input line-entry system (SMILES) of 5a-, 2a-, Cys- and 5a-Scr- […]
The concentration of each conjugate was quantified by spectrophotometric analysis at 774 nm (molar absorption coefficient, 240,000 M-1, cm-1) (Figure S3B). The final yield of 5a-IRDye […]
Binding of peptide-IRDye conjugates to avb6 and avb8 integrin […]
conjugates were added to the microtiterplates and incubated at room temperature for 1 h (see Experimental Section). After washing, bound fluorescence was measured using an Odyssey CLx (LI-COR) scanner. Representative images of the scanned plates and quantification of binding are shown. […]

In assay [1] the test system is BxPC-3 cells (αvβ6+/αvβ8-). As to the kind of experiment: binding of peptide-IRDye conjugates to cultured BxPC-3 cells. Type of assay: cell-based, human. As to conditions: 0.32-200 nM, 1 h, 37 °C; bound NIR fluorescence.

Peptide text beside a SMILES is read from it. * marks the point of attachment. X1 = CC1(C)C(/C=C/C2=C(Oc3ccc(S(=O)(=O)O)cc3)C(=C\C=C3/N(CCCCCC(=O)NCCN4C(=O)CC(*)C4=O)c4ccc(S(=O)(=O)O)cc4C3(C)C)/CCC2)=[N+](CCCCS(=O)(=O)O)c2ccc(S(=O)(=O)[O-])cc21

The EC50 is the midpoint of the concentration-response curve. For the compound `CC[C@H](C)[C@H](NC(=O)[C@H](CCCNC(=N)N)NC(=O)[C@H](CCC(=O)O)NC(=O)[C@H](CCC(=O)O)NC(=O)CNC(=O)[C@H](CCCNC(=N)N)NC(=O)[C@H](CC(C)C)NC(=O)[C@@H](NC(=O)[C@H](CCC(=O)O)NC(=O)[C@H](Cc1ccccc1)NC(=O)[C@@H](N)CSC1CC(=O)N(CCNC(=O)CCCCCN2/C(=C\C=C3\CCCC(/C=C/C4=[N+](CCCCS(=O)(=O)O)c5ccc(S(=O)(=O)[O-])cc5C4(C)C)=C3Oc3ccc(S(=O)(=O)O)cc3)C(C)(C)c3cc(S(=O)(=O)O)ccc32)C1=O)[C@@H](C)O)C(=O)N[C@@H](CC(C)C)C(=O)N[C@@H](CO)C(=O)N[C@H](C(=O)N[C@@H](CC(C)C)C(=O)N[C@@H](CCCNC(=N)N)C(=O)N[C@@H](Cc1c[nH]cn1)C(=O)N[C@@H](CCC(N)=O)C(=O)N[C@@H](CC(N)=O)C(=O)N[C@@H](CC(C)C)C(=O)N[C@@H](CC(C)C)C(=O)N[C@@H](CCCCN)C(=O)N[C@@H](CCC(=O)O)C(=O)N[C@@H](CC(C)C)C(=O)N[C@@H](CCC(N)=O)C(=O)N[C@@H](CC(=O)O)C(N)=O)[C@@H](C)CC` (stereo partly drawn) [2a-IRDye] (H-C(X1)FETLRGEERILSILRHQNLLKELQD-NH2), on murine αvβ8, the EC50 is more than 100 nM.
On to `CC1(C)C(/C=C/C2=C(Oc3ccc(S(=O)(=O)O)cc3)C(=C\C=C3/N(CCCCCC(=O)NCCN4C(=O)CC(SC[C@H](N)C(=O)O)C4=O)c4ccc(S(=O)(=O)O)cc4C3(C)C)/CCC2)=[N+](CCCCS(=O)(=O)O)c2ccc(S(=O)(=O)[O-])cc21` (stereo partly drawn) [Cys-IRDye], for which the EC50 on murine αvβ8 was more than 100 nM. The “binding of conjugate to BxPC-3 cells” value in assay [1] is “little or no binding”.
